Earlier results, collected in US20240009325A1 (PriZm, LLC, priority 2022, published 2024).
“Also recorded” adds a separate entry of the source.

What was measured:
[1] = test system: animal models; conditions: mice not neurologically affected; cited from earlier work
[2] = test system: mice deficient in MCT8; conditions: cited from earlier work; for cell entry in absence of MCT8: Mct8 deficient mice
[3] = test system: MCT8 deficient children; conditions: cited from earlier work; for high blood / serum T3 / neuropsychomotor deficit / neurological symptoms: MCT8 deficient patients
[4] = test system: D1; conditions: cited from earlier work

Structure (SMILES) | peripheral and central abnormalities [1] | suppressive effect on TSH ([2]; MCT8 deficient vs normal mice) | cell entry in absence of MCT8 [2] | hypermetabolism and nutrition ([3]; 4 MCT8 deficient children, compassionate basis) | high blood / serum T3 [3] | neuropsychomotor deficit / neurological symptoms [3] | T4 serum levels ([3]; clinical trial, Groeneweg et al. 2019) | D1 [4]
Cc1cc(OCC(=O)O)cc(C)c1Cc1ccc(O)c(C(C)C)c1 [Sobetirome] | able to restore some | – | – | – | – | – | – | –
O=C(O)Cc1cc(I)c(Oc2cc(I)c(O)c(I)c2)c(I)c1 [TETRAC] | able to restore some | – | – | – | – | – | – | –
O=C(O)CCc1cc(I)c(Oc2ccc(O)cc2)c(I)c1 [DITPA, 3,5-diiodothyropropionic acid] | able to restore some | equal suppressive effect | enter cells independent of MCT8 | ameliorating | reduction and normalization; also recorded: reduced | not the neuropsychomotor deficit; also recorded: no evidence for improvement | – | –
O=C(O)Cc1cc(I)c(Oc2ccc(O)c(I)c2)c(I)c1 [TRIAC, triiodothyroacetic acid] | able to restore some | – | enter cells independent of MCT8 | – | reduced | no evidence for improvement | significantly reduce | increases
